This assay concerns Gli-responsive luciferase reporter cells, SUFU pathway antagonism. Put plainly: blockers of Gli reporter signaling – cell-based, luciferase luminescence, uHTS hits, dose response (AID 602464).

Experimental findings from PubChem BioAssay AID602464 (Sanford-Burnham Center for Chemical Genomics, 2012) are described below.

Calls of active or inactive are those of the source. Rule as the data show it: active = IC50 below about 20 µM; inactive = the rest.

As a reminder, the IC50 is the concentration that gives 50% inhibition.

As for `O=C(Nc1ccncc1)c1ccc(-c2ccccc2)cc1`, the IC50 is 6.43 µM. Take `c1ccc(-c2c[n+]3c(n2-c2ccccc2)SCC3)cc1`: the IC50 is 9.72 µM. Then `C=CCOC(=O)c1[nH]c2c(c1C)C(=O)CC(c1cc(OC)c(OC)c(OC)c1)C2` (stereo not drawn), with 1.98 µM. On to `Cc1sc2ncnc(NCc3cccs3)c2c1C`, for which the 50% inhibitory concentration (IC50) is 8.05 µM. On to `CCOC(=O)c1c(NC(=O)COc2cccc3c2CCN(C)C3=O)sc2c1CCC2`, for which the IC50 is 8.42 µM. Regarding `Cc1nnsc1C(=O)NC1CCCc2c1cnn2-c1ccc(F)cc1F` (stereo not drawn), the IC50 is 8.15 µM. Next, `COc1ccccc1NS(=O)(=O)c1cccc(C(=O)NC2CCN(Cc3ccccc3)CC2)c1`: > 20 µM (inactive); `C[n+]1c2n(c3ccccc31)N=C(c1ccc(-c3ccccc3)cc1)CS2`: 1.32 µM; `CCCCNc1c(-c2ccc(OC)c(Sc3ccc(OC)cc3)c2)nc2ccccn12`: 6.31 µM. Then `Cc1nc2ccccc2c2c1CC(C(C)(Cl)Br)O2` (stereo not drawn), with 5.82 µM. Next, `CC(C)=CCC/C(C)=C/CNC(=O)C[C@H]1C[C@H](C(=O)N2CCOCC2)[C@@]2(C)c3[nH]c4cc(CCC(=O)N(C)C)ccc4c3CCN2C1=O`: 4.63 µM; `Cc1cc(Br)c(S(=O)(=O)NCc2ccncc2)cc1C`: 8.04 µM. Consider `Brc1ccc(-c2csc(N3CCCCCC3)n2)cc1`, for which the IC50 was 1.02 µM.

As for `CC(=O)N1c2ccc(S(=O)(=O)N3CCC(C(=O)N4CCCCC4)CC3)cc2CC1C` (stereo not drawn), the half-maximal inhibitory concentration (IC50) was 16.9 µM. Next, `Cc1ccc(-c2c[n+](Cc3ccc(Cl)c(Cl)c3)c3n2CCC3)cc1`: 2.79 µM; `CCC(C)CCN1C(N(C)C)=NC[C@@H]1CC(C)C` (stereo partly drawn): 7.98 µM. In the case of `CN1/C(=C\C=N\NC(=O)c2ccc(O)cc2)C(C)(C)c2ccccc21`, the IC50 is 4.34 µM.

As to `FC(F)Oc1ccc(-c2c[n+]3c(n2-c2ccccc2)CCCCC3)cc1`, the IC50 was 7.36 µM. Then `COc1ccccc1-n1c(-c2ccccc2)c[n+]2c1CCc1ccccc1-2`, with 3.63 µM. Take `Nc1ccc(Br)cc1-c1nc2ccccc2[nH]c1=O`: the IC50 was 0.771 µM.

Consider `COc1ccc2c(c1)c(C)cc[n+]2Cc1ccccc1`, for which the half-maximal inhibitory concentration (IC50) is 3.86 µM. Next, `CCOC(CN=c1nc(N(C)C)ss1)OCC`: > 20 µM (inactive).

In the case of `CC(=O)c1ccc(-n2cc(-c3ccc(C(C)(C)C)cc3)[n+]3c2SCCC3)cc1`, the IC50 is 9.87 µM. As to `c1ccc(C[n+]2cccc(-c3ccccc3)c2)cc1`, the IC50 was 10.8 µM.

Regarding `CC1CCC(NC(=O)c2cccc(S(=O)(=O)N3CCN(c4ccccc4)CC3)c2)CC1` (stereo not drawn), the half-maximal inhibitory concentration (IC50) was 9.93 µM. Next, `Cn1nc(CC(=O)NCc2ccc(C(F)(F)F)cc2)c2ccccc2c1=O`: 6.65 µM; `Cc1ccc(NC(=O)/C=C/c2ccco2)cc1S(=O)(=O)N1CCCCCC1`: 2.12 µM. Then `C=CCn1c(O)c(N=NC(=S)Nc2cccc(C)c2)c2ccccc21`, with 8.58 µM; and `CCCn1c2c(c(=N)c3c1CCC3)CCCC2`, with 11 µM. Then `CCCCCCCOc1ccc(OC(=O)c2cccnc2)cc1`, with 1.06 µM; and `CCCCc1ccc(NC(=O)C(=O)NCCN2CCN(Cc3ccc([N+](=O)[O-])cc3)CC2)cc1`, with 8.33 µM.

Consider `CCC(C(=O)NCCC(C)C)n1ccc2cc(S(=O)(=O)N3CCCCC3)ccc21` (stereo not drawn), for which the IC50 was 8.88 µM. Consider `O=C(c1ccc(Cl)cc1)N1CCN(c2ccnc3cc(Cl)ccc23)CC1`, for which the IC50 was 3.01 µM. Then `Cc1cc(C)c(C(N)=O)c(SCC(=O)c2cc(C)n(-c3cc(C)on3)c2C)n1`, with 4.78 µM; and `O=C(C[C@@H]1C/C=C\C[C@H](NC(=O)OCC2c3ccccc3-c3ccccc32)C(=O)OC[C@H]2CCCN2C1=O)N[C@H](CO)Cc1ccccc1`, with 6.71 µM; and `O=C(C[n+]1cc(-c2ccccc2)n2c1CCCCC2)c1ccc(Cl)cc1`, with > 20 µM (inactive). Regarding `C[n+]1c2n(c3ccccc31)N=C(c1ccccc1)CS2`, the 50% inhibitory concentration (IC50) was 6.49 µM.

On to `Clc1ccc(-c2cn(-c3ccccc3)c3[n+]2CCS3)cc1`, for which the 50% inhibitory concentration (IC50) was 16.9 µM.
